Measurements reported in patent publication US9340577B2, “HLA binding motifs and peptides and their uses” (priority 1992, dated 2016).
Like-named read-outs stand apart in the source and are kept apart here. No end group written: not given here.

Experiments:
Test in all cases: biochemical
DRB1*1101 = DRB1*1101 (Homo sapiens, UniProt P01903+P01911, A100R/A169T/A87E/I96F/K41T/L162R/M171V/P40S/Q125H/Q178H/Q39Y/Q99D/R42S/S66Y/T262R/V115G/W38E)
DRB1*0901 = DRB1*0901 (Homo sapiens, UniProt P01903+P01911, A100R/A103E/D57H/D86V/F55Y/F60I/F76Y/I96F/K127E/L162R/M171V/P40D/Q125H/Q99R/R33Q/R42F/S133A/S66N/T210M/V115G/W38K/Y107V/Y59G/Y89S); format: binding
DRB1*1201 = DRB1*1201 (Homo sapiens, UniProt P01903+P01911, A100R/A169T/D57E/D86V/F55L/H45Y/K41T/L162R/M171V/P40S/Q125H/Q178H/Q39Y/Q99D/R42G/S66L/T262R/V114A/V67L/W38E/Y59H/Y61H/Y89S); format: binding
DRB5*0101 = DRB5*0101 (Homo sapiens, UniProt P01903+Q30154)
DRB1*0301 = DRB1*0301 (Homo sapiens, UniProt P01903+P01911, A100K/A102G/A103R/A169T/F55Y/I96L/K41T/L162R/M171V/P40S/Q125H/Q178H/Q39Y/R42S/S66N/T106N/T262R/W38E/Y61H); format: binding
Sequence of DRB1*0301 (P01903 26-254 limits assumed, other chains not shown): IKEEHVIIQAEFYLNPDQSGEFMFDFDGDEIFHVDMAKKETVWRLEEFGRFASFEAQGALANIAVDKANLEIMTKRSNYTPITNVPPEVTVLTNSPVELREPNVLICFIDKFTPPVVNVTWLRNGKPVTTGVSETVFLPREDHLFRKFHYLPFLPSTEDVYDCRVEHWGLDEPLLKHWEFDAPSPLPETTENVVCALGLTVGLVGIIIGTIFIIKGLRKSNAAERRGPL

DRB1*0802 = DRB1*0802 (Homo sapiens, UniProt P01903+P01911, A100R/A103L/A169T/F76Y/H45Y/I96F/K41T/L162R/M171V/P40S/Q125H/Q178H/Q39Y/Q99D/R218S/R42G/S66Y/V115G/W38E); format: binding
DRB1*1302 = DRB1*1302 (Homo sapiens, UniProt P01903+P01911, A100E/A169T/K41T/L162R/M171V/P40S/Q125H/Q178H/Q39Y/Q99D/R42S/S66N/T262R/V115G/W38E/Y61H); format: binding
Sequence of DRB1*1302 (P01903 26-254 limits assumed, other chains not shown): as above

DR4w4 (DRB1*0401) = DR4w4 (DRB1*0401) (Homo sapiens, UniProt P01903+P01911, A100K/A169T/F76Y/I96L/K127E/L162R/M171V/N62H/P40V/Q125Y/R42H/S133A/S149N/S66Y/V115G/V209L/W38E); format: binding
DR7 (DRB1*0701) = DR7 (DRB1*0701) (Homo sapiens, UniProt P01903+P01911, A100R/A102G/A103Q/D57E/D86V/E43K/F76Y/K127E/L162R/M171V/P40G/Q125H/Q99D/R33Q/R42Y/R54Q/S133A/S66F/T210M/V115G/Y107V/Y59L/Y89S); format: binding
DR1 (DRB1*0101) = DR1 (DRB1*0101) (Homo sapiens, UniProt P01903+P01911, A100R/D57E/F55L/F60I/F76Y/I96L/L162R/M171V/P40L/Q125E/R42F/V115G/Y59C); format: binding
DRB1*1501 = DRB1*1501 (Homo sapiens, UniProt P01903+P01911); format: binding
DRB4*0101 = DRB4*0101 (Homo sapiens, UniProt P01903+P13762, G164S); format: binding

Sequence of DRB1*1101 (P01903 26-254 limits assumed, other chains not shown): as above

Molecule | IC50 (DRB1*1101; Binding affinity DRB1 *1101) [nM] | IC50 (DRB1*0901) [nM] | IC50 (DRB1*1201) [nM] | IC50 (DRB5*0101; Binding affinity DRB5 *0101) [nM] | IC50 (DRB1*0301) [nM] | IC50 (DRB1*0802) [nM] | IC50 (DRB1*1302) [nM] | IC50 (DR4w4 (DRB1*0401)) [nM] | IC50 (DR7 (DRB1*0701)) [nM] | IC50 (DR1 (DRB1*0101)) [nM] | IC50 (DRB1*1501) [nM] | IC50 (DRB4*0101) [nM] | IC50 (DRB5*0101) [nM] | IC50 (DRB1*1101) [nM]
CC[C@H](C)[C@H](NC(=O)CNC(=O)[C@@H](NC(=O)[C@H](CCCCN)NC(=O)[C@H](Cc1ccc(O)cc1)NC(=O)[C@H](Cc1c[nH]c2ccccc12)NC(=O)[C@H](Cc1ccc(O)cc1)NC(=O)[C@@H](N)CC(C)C)[C@@H](C)O)C(=O)N[C@@H](CO)C(=O)N[C@@H](CC(N)=O)C(=O)N[C@H](C(=O)N[C@@H](CO)C(=O)N[C@@H](CCC(=O)O)C(=O)N[C@H](C(=O)N[C@@H](Cc1ccc(O)cc1)C(=O)O)C(C)C)[C@@H](C)CC [Peptide 89.0009] | 6280 | 631 | 4620 | 634 | > 20000 | 1440 | 319 | 20 | 19 | 41 |  |  |  | 
CC[C@H](C)[C@H](NC(=O)[C@H](Cc1c[nH]cn1)NC(=O)[C@H](C)NC(=O)[C@H](Cc1ccc(O)cc1)NC(=O)[C@H](CC(C)C)NC(=O)[C@@H](NC(=O)[C@H](Cc1ccccc1)NC(=O)[C@@H]1CCCN1C(=O)[C@H](CCC(N)=O)NC(=O)[C@@H](NC(=O)[C@H](CC(C)C)NC(=O)[C@@H](NC(=O)[C@H](CCCCN)NC(=O)[C@@H](N)Cc1ccccc1)[C@@H](C)O)[C@@H](C)CC)[C@@H](C)CC)C(=O)N[C@@H](CCC(N)=O)C(=O)O [Peptide 89.0025] |  | 97 | 513 | 8430 | > 20000 |  |  | 728 | 882 | 27 | 20 | 9.6 |  | 
CSCC[C@H](NC(=O)[C@H](Cc1ccc(O)cc1)NC(=O)[C@H](Cc1ccc(O)cc1)NC(=O)[C@@H](NC(=O)[C@@H](N)CO)C(C)C)C(=O)N[C@H](C(=O)N[C@@H](CC(=O)O)C(=O)N[C@@H](C)C(=O)NCC(=O)N[C@H](C(=O)N[C@@H](Cc1c[nH]c2ccccc12)C(=O)N[C@@H](CC(=O)O)C(=O)N[C@@H](CCCCN)C(=O)N[C@H](C(=O)N[C@@H](C)C(=O)O)[C@@H](C)O)[C@@H](C)O)[C@@H](C)O [Peptide 90.0182] | 2880 | 1600 | 708 | > 20000 | 328 | 8460 | 14 |  |  | 9.3 | 43 | 7 |  | 
DDRWPYLHSRLVVFT [Peptide 89.0058] |  | 158 | 297 | > 20000 | > 20000 | 1700 | 2190 | > 20000 | 68 | 29 | 284 | 297 |  | 
ESDMAFEYALLADSN [Peptide 90.0055] | 4680 | 826 | 16300 |  | 591 | 5730 | 1850 | 24 |  | 57 | 428 | 165 |  | 
GKSLFGMSLMKFLQG [Peptide 89.0019] | 1360 | 148 | 80 | 513 | 2740 | 704 | 2030 | 468 | 16 | 17 | 2780 | 369 |  | 
IHFIQGAVISFVNST [Peptide 89.0037] | > 20000 |  | 732 | > 20000 | > 20000 | 11700 |  | 5130 | 338 | 31 | 6980 | 155 |  | 
IIHLKGDPNSLKCLR [Peptide 90.0228] | > 20000 | > 20000 | 5830 | 1330 | 11 | 877 | 163 | 121 | 2540 |  |  | 1900 |  | 
KSLFGMSLMKFLQGS [Peptide 89.0020] | 535 | 310 | 944 |  | > 20000 |  | 4670 | 573 | 21 |  | 2110 | 449 |  | 
LKLFLKGVPKKNCIL [Peptide 89.0054] |  | 2010 | 1730 |  | 9900 | 341 | 3380 | 2910 |  | 200 | 3350 | 619 |  | 
LKSFLKGTPKKNCLV [Peptide 89.0035] |  | 2690 | 3230 |  | > 20000 | 208 | 430 | 320 |  | 30 | 5190 | 4740 |  | 
NCILLYGAANTGKSL [Peptide 89.0017] | 5780 |  | > 20000 | 442 | > 20000 | 2690 | 2120 |  | > 20000 | 81 |  | 525 |  | 
QQTVCREGVKRRLIL [Peptide 90.0129] | 1020 | 3920 | 12700 |  | 711 | 3740 | > 20000 | 82 | > 20000 | 5890 | > 20000 | 11 | > 20000 | 
RLNVCQDKILTHYEN [Peptide 90.0160] | 372 | 50 | 256 | 1640 | 307 |  | 96 | 3.5 | 7980 | 2.7 | 3800 | 0.61 |  | 
RLTVAKGLSTLLHVP [Peptide 89.0028] | 232 | 399 | 274 |  | 14500 | 501 | 675 | 53 | 180 | 46 |  | 406 |  | 
RYRFQKYKTLFVDVT [Peptide 90.0019] | 728 | 226 | 4510 |  | 5630 | 407 | 2170 | 623 | 43 | 74 | 590 | 4110 |  | 
TVTFVTEQQQQMFLG [Peptide 90.0210] | > 20000 | > 20000 | 2770 | > 20000 | 41 | 6020 | > 20000 |  | > 20000 | 1950 | > 20000 |  |  | 
WKAVRHENVLYYKAR [Peptide 90.0230] |  |  | 415 |  | 76 | 613 | 264 | 718 | 666 | 164 |  | 189 | 762 | 2120
WKLIRMECALLYTAK [Peptide 90.0199] | 2000 | 4000 | 159 | 3630 | 141 | 2700 | 98 |  | 3160 |  | 509 | 62 |  | 
